Experimental data taken from ChEMBL document CHEMBL5500324, “The potential of marine-derived piperazine alkaloids: Sources, structures and bioactivities” (Eur J Med Chem, 2024).
Converted amounts (≈) assume the structure as drawn.

Tests used:
HeLa = assay: Cytotoxicity against human HeLa cells assessed as reduction in cell viability measured for 24 hrs by MTT assay; format: functional, cell-based
K562 = assay: Antiproliferative activity against human K562 cells assessed as reduction in cell growth incubated for 72 hrs by MTT assay; format: functional, cell-based; conditions: K562, 72 h
HL-60 = assay: Antiproliferative activity against human HL-60 cells assessed as reduction in cell growth incubated for 72 hrs by MTT assay; format: functional, cell-based; conditions: HL-60, 72 h
BGC-823 = assay: Cytotoxicity against human BGC-823 cells assessed as reduction in cell growth measured after 72 hrs by MTT assay; format: functional, cell-based; conditions: BGC-823, 72 h
MCF7 = assay: Cytotoxicity against human MCF7 cells assessed as reduction in cell growth measured after 72 hrs by MTT assay; format: functional, cell-based; conditions: MCF7, 72 h
ECV-304 = assay: Cytotoxicity against human ECV-304 cells; format: functional, cell-based
NCI-H929 = assay: Cytotoxicity against human NCI-H929 cells; format: functional, cell-based
CAL-27 = assay: Cytotoxicity against human CAL-27 cells; format: functional, cell-based
A549 [1] = assay: Cytotoxicity against human A549 cells; format: functional, cell-based
P388 [2] = assay: Cytotoxicity against mouse P388 cells assessed as inhibition of cell growth; format: functional, cell-based
A549 [3] = assay: Cytotoxicity against human A549 cells assessed as inhibition of cell growth; format: functional, cell-based
HT-29 [4] = assay: Cytotoxicity against human HT-29 cells assessed as inhibition of cell growth; format: functional, cell-based
SK-MEL-28 [5] = assay: Cytotoxicity against human SK-MEL-28 cells assessed as inhibition of cell growth; format: functional, cell-based
SK-MEL-28 [6] = assay: Cytotoxicity against human SK-MEL-28 assessed as inhibition of cell growth incubated for 48 hrs; format: functional, cell-based; conditions: SK-MEL-28, 48 h
P388 [7] = assay: Cytotoxicity against mouse P388 cells assessed as inhibition of cell growth incubated for 48 hrs; format: functional, cell-based; conditions: P388, 48 h
A549 [8] = assay: Cytotoxicity against human A549 assessed as inhibition of cell growth incubated for 48 hrs; format: functional, cell-based; conditions: A549, 48 h
HT-29 [9] = assay: Cytotoxicity against human HT-29 assessed as inhibition of cell growth incubated for 48 hrs; format: functional, cell-based; conditions: HT-29, 48 h
BC = assay: Cytotoxicity against human BC cells assessed as inhibition of cell growth; format: functional, cell-based
HCT-116 = assay: Antiproliferative activity against human HCT-116 cells assessed as reduction in cell viability incubated for 24 hrs by MTT assay; format: functional, cell-based; conditions: HCT-116, 24 h
QG-56 = assay: Cytotoxicity against human QG-56 cells assessed as reduction in cell growth incubated for 24 hrs by MTT assay; format: functional, cell-based; conditions: QG-56, 24 h
DU-145 = assay: Cytotoxicity against human DU-145 cells assessed as cell growth inhibition measured after 48 hrs by MTT assay; format: functional, cell-based; conditions: DU-145, 48 h
SF-268 = assay: Cytotoxicity against human SF-268 cells assessed as reduction in cell viability incubated for 72 hrs by SRB assay; format: functional, cell-based; conditions: SF-268, 72 h
HepG2 [10] = assay: Cytotoxicity against human HepG2 cells assessed as reduction in cell viability incubated for 72 hrs by SRB assay; format: functional, cell-based; conditions: HepG2, 72 h
HepG2 [11] = assay: Cytotoxicity against human HepG2 cells assessed as reduction in cell growth; format: functional, cell-based
[12] = Cytotoxicity against human Huh-7 cells assessed as reduction in cell growth; format: toxicity, cell-based

C=CC(C)(C)[C@@]12C[C@H]3C(=O)N[C@@H](Cc4ccccc4)C(=O)N3[C@@H]1N([C@H]1O[C@]3(C[C@@H]1NC(=O)/C=C/C(C)CC(C)CCCCCC)[C@@H]1O[C@@H]1[C@](O)(CC(C)=O)[C@@H]1O[C@@H]13)c1ccccc12 (stereo not given in full)
IC50 (HeLa): 9500 nM | IC50 (K562): 11400 nM | IC50 (HL-60): 5400 nM | IC50 (BGC-823): 8000 nM | IC50 (MCF7): 5400 nM

COc1cc2c(cc1O)CCN[C@@]21CS[C@@H]2c3c(OC(C)=O)c(C)c4c(c3[C@H](COC1=O)N1[C@@H]2[C@H]2c3c(cc(C)c(OC)c3O)C[C@@H]([C@@H]1O)N2C)OCO4
IC50 (ECV-304): 1.6 nM | IC50 (NCI-H929): 1.1 nM | IC50 (CAL-27): 0.9 nM | IC50 (A549 [1]): 1.5 nM | IC50 (P388 [2]): 200 nM | IC50 (A549 [3]): 0.0002 µg/mL (≈ 0.000263 µM) | IC50 (HT-29 [4]): 0.0005 µg/mL (≈ 0.000656 µM) | IC50 (SK-MEL-28 [5]): 0.005 µg/mL (≈ 0.00656 µM)

COC1=C(C)C(=O)C2=C(C1=O)[C@H]1[C@@H]3CC4=C(C(=O)C(OC)=C(C)C4=O)[C@H](COC(C)=O)N3[C@@H](O)[C@@H](C2)N1C
IC50 (SK-MEL-28 [6]): 0.0125 µg/mL (≈ 0.0237 µM) | IC50 (P388 [7]): 0.0125 µg/mL (≈ 0.0237 µM) | IC50 (A549 [8]): 0.0125 µg/mL (≈ 0.0237 µM) | IC50 (HT-29 [9]): 0.0125 µg/mL (≈ 0.0237 µM) | IC50 (BC): 2.5 nM | IC50 (HCT-116): 0.57 nM | IC50 (QG-56): 0.76 nM | IC50 (DU-145): 0.49 nM

C=CC(C)(C)c1[nH]c2ccccc2c1/C=C1\NC(=O)[C@@]2(CC[C@]3(O)c4cc(C)cc(O)c4C(=O)c4c(O)cc(OC)c2c43)NC1=O
IC50 (SF-268): 30100 nM | IC50 (HepG2 [10]): 37300 nM

C[C@H]1CN2CC[C@]34C[C@@]5(C(=O)Nc6c5ccc5c6C(=O)CC(C)(C)O5)C(C)(C)[C@@H]3[C@@]2(C1)C(=O)N4C
IC50 (HepG2 [11]): 3700 nM | IC50 [12]: 2800 nM
